Laboratory results as given in patent US20100093017A1, “Metabolically Competent Cell Lines” (CXR Biosciences Limited, priority 2008, published 2010).

What was measured:
[1] = system: antioxidant responsive element (ARE); assay: ARE luciferase reporter induction in adenovirus-P450-transduced ARE32 (MCF-7/ARE) cells; format: cell-based, human; conditions: BHA 20 μM; for ARE reporter induction: 7-EC 100 μM; for induction of the ARE reporter: MCF-7 control cells or in the presence of CYP3A4 or CYP2D6, 7-E 100 μM
Protocol: ARE32 cells were seeded in 24-well plates at 2×10^5 cells per well and cultured overnight. Cells were transduced for 2 h with up to three Adeno-P450s at MOI value of 27 pfu/cell in 0.5 ml of culture medium, after which the medium was removed and replaced with fresh medium. Cells were incubated for an additional 48 h and then were treated with chemicals in serum-free medium for 1 day. Then cells were harvested and lysed. The Luciferase Reporter Assay System (Promega) was used to examine reporter gene activity in cell lysates.
In cell line ARE32, the antioxidant responsive element (ARE), activated by Nrf2, is used to drive a luciferase gene as reporter. A functional ARE is found in the 5′ flanking region of genes encoding NQO1, multiple GST isozymes and many other anticarcinogenic/antioxidant genes. Induction of these genes confers cytoprotection against carcinogenesis and acts to minimize the effects of the toxic insult. Therefore, measurement of ARE induction provides useful information into the particular mechanism of toxicity. […] ARE32 control values are from ARE32 cells without virus infection. ARE32 Transduced values are from ARE32 cells infected with three viruses: Ad3A4.F2A.CPR; Ad2D6(His)CPR; and Ad2A6.F2A.1A1 at a total MOI value of 27.
In further experiments, we examined induction of the ARE reporter in MCF-7 cells expressing CYP3A4 and CPR, CYP2A6 and CPR, CYP2D6 and CPR or CYP2A6 and CYP1A1 by either butylated hydroxyanisole, an antioxidant widely used as a food preservative (BHA-20 μM) or 7-ethoxycoumarin, an antioxidant (7-E-100 μM).
With reference to FIG. 5, expression of the luciferase reporter readout is evaluated in comparison to control MCF-7/ARE cells not expressing P450 transgenes (first bar=1).
Butylated hydroxyanisole (BHA) is an antioxidant used as a food additive (E320). […] We examined induction of the ARE reporter in ARE32 cells expressing CYP3A4 and CPR, CYP2A6 and CPR, CYP2D6 and CPR or CYP2A6 and CYP1A1 by either butylated hydroxyanisole (BHA) at 20 μM or 7-ethoxycoumarin (7-EC) at 100 μM (FIG. 8).

HepG2 cells = system: HepG2 cells
Protocol: CYP3A4 and P450 reductase were delivered into HepG2 cells (Hep-3A4) by adenoviral transduction at Multiplicity of Infection (MOI)=8. […] The adenovirus Ad-mock was used to transduce HepG2 cells at MOI=8 as control (Hep-mock). CYP3A4 activity was determined and compared in Hep-3A4 cells and cryopreserved human hepatocytes.

[2] = system: cryopreserved human hepatocytes
[3] = ARE32 cells expressing CYP3A4 or CYP2D6 (with CPR)

| Structure (SMILES) | ARE reporter induction ([1]; ARE32 cells expressing CYP2A6) | ARE reporter induction [1, 3] | induction of the ARE reporter [1] | effect of glutathione depletion by BSO on cytotoxicity (HepG2 cells; 100 μM BSO, Hep-3A4 and Hep-mock cells) | additional CYP3A4 related cytotoxic effect under glutathione depletion (HepG2 cells; 100 μM BSO, Hep-3A4 vs Hep-mock, at the concentrations used) | cell viability (ATP depletion assay) (HepG2 cells; Hep-3A4 and Hep-mock cells) | concentration at which CYP3A4-related toxic activation was observed (HepG2 cells; Hep-3A4 vs Hep-mock) [µM] | cell viability (ATP depletion assay) [2] |
| --- | --- | --- | --- | --- | --- | --- | --- | --- |
| CCOc1ccc2ccc(=O)oc2c1 [7-ethoxycoumarin] | Significant ARE reporter induction | not with CYP3A4 or CYP2D6 | little or no induction | – | – | – | – | – |
| COc1ccc(O)c(C(C)(C)C)c1 [BHA, butylated hydroxyanisole] | Significant ARE reporter induction | not with CYP3A4 or CYP2D6 | little or no induction | – | – | – | – | – |
| CC(=O)Nc1ccc(O)cc1 [acetaminophen] | – | – | – | significant sensitisation | no apparent additional CYP3A4 related cytotoxic effect | dose-dependent decrease in cell viability | 10000 | – |
| CC/C(=C(\c1ccccc1)c1ccc(OCCN(C)C)cc1)c1ccccc1 [tamoxifen] | – | – | – | – | – | dose-dependent decrease in cell viability | – | dose-dependent decrease in cell viability |
